Laboratory results published in article PMC12703733, “Probing Guanidino Pendant or Bridged Groups in Cyclic Antimicrobial Peptides Derived from Temporin L: A Strategy to Improve Efficacy against Gram-Negative Bacteria” (Journal of Medicinal Chemistry, 2025).
Values after ≈ are worked out from the molar mass of the structure shown. Where two headings read alike, the source gives them in different places. Bridge positions count the residues as written; N and C are the ends. Square brackets hold non-standard residues; d marks the D form. Peptide text beside a SMILES is read from it.

Experiments:
in vitro = in vitro ADME; details: isolated enzyme chymotrypsin, pH 7.8
Description: Peptide stability was evaluated by modifying previously described procedures. , The assays were performed in human serum and in the presence of proteolytic enzymes such as trypsin and chymotrypsin. For human serum stability, 2 mM peptide stock solutions were prepared in water and mixed with human serum (from male AB plasma, USA origin, sterile-filtered, Merck/Sigma-Aldrich, USA) to obtain a final concentration of 200 μM [human plasma/stock solution (9:1, v/v)]. The mixtures were incubated at 37 ± 1 °C, and 50 μL aliquots were taken at predetermined time intervals (0, 1, 2, 4, 8, and 24 h). Protease activity was quenched by adding 100 μL of acetonitrile (MeCN). The resulting cloudy suspensions were cooled to 4 °C for 30 min and centrifugated at 12,000 rpm for 10 min to remove the serum proteins. Then, the supernatants were analyzed by analytical HPLC (Shimadzu Nexera Liquid Chromatograph LC-30AD) which was equipped with a Phenomenex Kinetex reversed-phase column (C18, 5 μm, 100 Å, 150 mm × 4.6 mm) with a flow rate of 1 mL/min using a gradient of MeCN (0.1% TFA) in water (0.1% TFA), from 10 to 70% over 15 min, and UV detection at 220 nm. For enzyme stability, each peptide peptide (200 μM) was incubated with trypsin (0.5 μM) in PBS 1× (pH 7.2) or with chymotrypsin (0.005 μM) in Tris–HCl (100 mM, pH 7.8). Samples (50 μL) were collected at 0, 1, 2, 4, and 24 h, quenched with 0.5% TFA in water, and analyzed by HPLC under chromatographic conditions as described above. All experiments were conducted in triplicate. The percentage of intact peptides at each time point was determined by integrating the corresponding HPLC peak areas.

circular dichroism = details: water; pH ns; 25 °C; 150 uM
[1] = tested on: human keratinocytes (HaCaT cells); type: cell-based
Summary of the method: (§1)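 Cells were plated at about 4 × 10^4/well in 2% FBS, then exposed to peptide at 100–3.12 μM in serum-free medium for 2 h or 24 h. Viability was measured by MTT reduction (0.5 mg/mL, 4 h, absorbance 570 nm) relative to untreated cells, as the mean ± SEM of three experiments.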

[2] = type: cell-based, human
Summary of the method: as §1

E. coli ATCC 25922 = assay: microbe, parasite or virus in culture; type: cell-based; details: ATCC 25922
Summary of the method: (§2)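 Mid-log bacteria diluted to 2 × 10^6 cell/mL in Mueller Hinton broth and incubated with compound at 37 °C; ciprofloxacin as control. MICs from three identical readings across four independent experiments.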

[3] = tested on: S. epidermidis ATCC 12228; assay: microbe, parasite or virus in culture; type: cell-based; details: ATCC 12228
Summary of the method: as §2

all bacteria tested = assay: MIC panel, geometric mean over all strains; type: cell-based; details: geometric mean of the MICs against all bacteria tested
Description: The antimicrobial efficacy of the TLcyc analogues was assessed against a representative panel of Gram-positive and Gram-negative bacterial strains, by determining their minimal inhibitory concentrations (MIC), as summarized in Table . To provide an integrated measure of antimicrobial potency, we calculated the geometric mean (GM) of MIC values across all strains (GMall), as well as separately for Gram-positive (GMGram+) and Gram-negative (GMGram–) bacteria.
Bacterial strains used in this study were the Gram-positive S. aureus ATCC 25923, S. epidermidis ATCC 12228, B. megaterium BM11, S. agalactiae ATCC 27591, E. faecalis ATCC 29212 and the Gram-negative E. coli ATCC 25922, P. aeruginosa ATCC 27853, A. baumannii ATCC 19606, E. coli D21 and P. aeruginosa PAO1. […] Bacterial cells in the mid log phase were diluted in Muller Hinton (MH) at a concentration of 2 × 10^6 cell/mL. Aliquots of 50 μL of this bacterial suspension were added to 50 μL of MH containing serial 2-fold dilutions of the peptides (from 100 to 0.19 μM) in the wells a 96-well plate. Ciprofloxacin was used as antibiotic control. The plate was then incubated at 37 °C. MICs were obtained from three identical readings of four independent experiments.

CC[C@H](C)[C@H](NC(=O)[C@H](CCCNC(=N)N)NC(=O)[C@H]1CCC(=O)NCCCC[C@H](NC(=O)[C@H](Cc2ccccc2)NC(=O)[C@H](Cc2c[nH]c3ccccc23)NC(=O)[C@@H]2CCCN2C(=O)[C@@H](NC(=O)[C@@H](N)Cc2ccccc2)C(C)C)C(=O)N[C@@H](CCCCN)C(=O)N[C@@H](Cc2ccccc2)C(=O)N[C@H](CC(C)C)C(=O)N1)C(=O)N[C@@H](CC(C)C)C(N)=O [Peptide 2, FVPWF[KKFle]RIL] (H-FVPWFKKF[dL][dE]RIL-NH2; lactam 6-10)
remaining at 4 h, 200 μM (in vitro): ~20%
helicity (circular dichroism): 7%
Cell viability (%) ([1]; 3.12 µM): 101 ± 2%
Cell viability (%) ([1]; 6.25 µM): 92 ± 2%
Cell viability (%) ([1]; 12.5 µM): 92 ± 1%
Cell viability (%) ([1]; 25 µM): 94 ± 1%
CC50 ([1]; 24 h): 56.4 µM
CC50 ([2]; CC50): > 50 µM
viability at 3.12 µM ([2]; Cell viability (%)): 102%
viability at 6.25 µM ([2]; Cell viability (%)): 96%
viability at 12.5 µM ([2]; Cell viability (%)): 95%
viability at 25 µM ([2]; Cell viability (%)): 95%
viability at 50 µM ([2]; Cell viability (%)): 64%
MIC (E. coli ATCC 25922): 6.25 µM (≈ 10.7 µg/mL)
MIC [3]: 3.12 µM (≈ 5.32 µg/mL)
geometric mean GMall (all bacteria tested): 8.81 µM
